Assay results as given in publication PMC9598925, “Synthetic Amphipathic β-Sheet Temporin-Derived Peptide with Dual Antibacterial and Anti-Inflammatory Activities” (Antibiotics, 2022).
Like-named read-outs stand apart in the source and are kept apart here. Non-standard residues stand in square brackets, D forms with d. Residues, ends and D or L forms follow the SMILES beside them. Nle = CCCC[C@H](N)C(=O)O

What was measured:
[1] = tested on: HaCaT cells; test: Cytotoxicity on human keratinocytes, MTT assay; format: cell-based; details: 3.12–12.5 μM, 2 h and 24 h
Method: The human immortalized keratinocytes HaCaT cells were purchased from AddexBio (San Diego, CA, USA) and cultured in Dulbecco’s modified Eagle’s medium supplemented with 4 mM glutamine (DMEMg), 10% heat-inactivated fetal bovine serum (FBS), and 0.1 mg/mL of penicillin and streptomycin, at 37 °C and 5% CO2, in 25 cm^2 or 75 cm^2 flasks. The in vitro MTT [3-(4,5-dimethylthiazol-2-yl)-2,5-diphenyltetrazolium bromide] assay, based on the reduction of the yellow tetrazolium salt MTT to the purple formazan by viable cells with active metabolism, was used to evaluate the peptide cytotoxicity on HaCaT cells, as previously described in [27]. Specifically, 4 × 10^4 HaCaT cells, suspended in DMEMg supplemented with 2% FBS were plated in a 96-well microtiter plate. After overnight incubation, at 37 °C in a 5% CO2 atmosphere, HaCaT cells were treated for 2 h or 24 h with fresh serum free medium containing the peptide [Nle^1, DLeu^9, DLys^10]TL in a concentration range from 3.12 to 100 μM. […] Formazan crystals were dissolved using acidified isopropanol, and the absorbance of each well was measured at 570 nm using a microplate reader (Infinite M200; Tecan, Salzburg, Austria). The number of viable cells was proportional to the intensity of purple color and was expressed as percentage compared to that of untreated control cells (100%). […]

[2] = tested on: J774A.1 murine macrophage cells; details: MTT, 3 independent experiments
Method: The spectrophotometric absorbance was then measured using a microtiter enzyme-linked immunosorbent assay reader (Multiskan™ GO Microplate Spectrophotometer; Thermo Scientific™, Milan, Italy) at 540 nm. The percentage of cell viability was assessed by the following formula: (OD of treated cells/OD of control) × 100.

[3] = Circular dichroism in vesicles; format: physicochemical; details: vesicles of DOPG/CL and DOPG/DOPE/CL, peptide 3 μM, phosphate buffer 5 mM pH 7.4, 25 °C; negative band at ~220 nm
Method: All CD spectra were recorded from 260 to 190 nm (a bandwidth of 3 nm, a time constant of 16 s, and a scan rate of 10 nm/min) on a Jasco J-175 spectropolarimeter using a 1 cm quartz cell at 25 °C. Small unilamellar vesicles (SUVs) made of DOPG/CL (58/42 ratio in moles) and DOPG/DOPE/CL (63/23/12 ratio in moles) were used in the conformational study. SUVs were prepared as reported previously. Firstly, lipids dissolved in chloroform and an equal volume of peptide solution dissolved in 2,2,2-trifluoroethanol (TFE) containing the peptide [Nle^1, DLeu^9, DLys^10]TL at a concentration of 3 μM were mixed, vortexed, and lyophilized overnight. Then, the dry samples were hydrated with phosphate buffer 5 mM, pH 7.4, for 1 h and sonicated for 30 min to obtain SUVs. Each spectrum was corrected for the blank and converted into mean molar ellipticity.

[4] = tested on: sheep red blood cells; test: Hemolytic assay; format: cell-based
Method: Hemolysis was evaluated on sheep red blood cells (OXOID, SR0051D, Milan, Italy). Aliquots of cells in 0.9% (w/v) NaCl were incubated with the peptide [Nle^1, DLeu^9, DLys^10]TL at different concentrations (ranging from 3.12 to 100 μM) for 40 min at 37 °C with gentle shaking. Controls were erythrocytes treated with vehicle while total lysis controls were obtained by suspending cell in distilled water. Then, the samples were centrifuged for 5 min at 900× g, and the presence of hemoglobin in the supernatant was measured at an absorbance of 415 nm using a microplate reader (Infinite M200; Tecan, Salzburg, Austria) and compared to the complete lysis of erythrocytes (100%). The data reported are the mean ± the standard error of the mean (S.E.M.) of three independent experiments.

CCCC[C@H](N)C(=O)N[C@@H](Cc1ccccc1)C(=O)N[C@H](C(=O)N1CCC[C@H]1C(=O)N[C@@H](Cc1c[nH]c2ccccc12)C(=O)N[C@@H](Cc1ccccc1)C(=O)N[C@@H](CO)C(=O)N[C@@H](CCCCN)C(=O)N[C@@H](Cc1ccccc1)C(=O)N[C@H](CC(C)C)C(=O)N[C@H](CCCCN)C(=O)N[C@@H](CCCNC(=N)N)C(=O)N[C@H](C(=O)N[C@@H](CC(C)C)C(N)=O)[C@@H](C)CC)C(C)C [[Nle^1, DLeu^9, DLys^10]TL] (H-[Nle]FVPWFSKF[dL][dK]RIL-NH2)
effect on human keratinocytes viability [1]: only a slight reduction
cytotoxic effect on murine macrophage cell line ([2]; J774A.1, 1–3 μM): safe profile
cytotoxic effect on murine macrophage cell line ([2]; J774A.1, 10 and 30 μM): significant reduction of cell viability
molecular conformation (CD) [3]: β-type conformation
hemolysis ([4]; 50 µM): ~ 40%
hemolysis ([4]; 100 µM): ~ 40%
